We go through three compounds from article PMC6587524 (Journal of Clinical Pharmacology, 2018).

Data set [1] is classed as in vivo, healthy female subjects. Further details: AUC0-t, Central Value, Test / AUC0-t, Central Value, Reference / AUCinf, Central Value, Test / AUCinf, Central Value, Reference: unit not given beside the values. The settings on record: for Bioequivalence in the presence and absence of upadacitinib: 90% CIs of Cmax and AUC ratios within 0.8 to 1.25; for Tmax: median (minimum to maximum); for AUC(0-inf): AUCinf; for half-life: t1/2 (terminal half-life), harmonic mean (pseudo-standard deviation).

Data set [2] in a line: Safety assessment during the study. The following applies: period 2. It is filed as in vivo, healthy female subjects.
For data set [3] the following is noted: cited from earlier work.
In another data set the test system is cytochrome P450 (CYP) 3A. The following applies: coadministration following multiple doses of ketoconazole; cited from earlier work.
Another data set deals with JAK1. The following applies: cited from earlier work.
For a further data set, the system named is other JAK isoforms. The settings on record: relative to JAK1; cited from earlier work.
Where [4] appears, read: ethinylestradiol/levonorgestrel 0.03/0.15 mg alone, period 1 day 1, N = 22, mean ± SD.
Setting [5] is: ethinylestradiol/levonorgestrel 0.03/0.15 mg with upadacitinib 30 mg QD, period 2, N = 20, mean ± SD.
Where [6] appears, read: ethinylestradiol/levonorgestrel 0.03/0.15 mg with upadacitinib 30 mg QD, period 2, N = 20.
Setting [7] is: period 1, day 1 (oral contraceptive alone), repeated measures analysis.
Where [8] appears, read: period 2, day 12 (with upadacitinib 30 mg QD), repeated measures analysis.

Where two headings read alike, the source gives them in different places.

What is called AUC(0-t) is the area under the concentration-time curve up to a stated or last time point. Broadly, the Cmax is the maximum level reached in the sampled fluid or tissue. Turning to `C#C[C@]1(O)CC[C@H]2[C@@H]3CCC4=CC(=O)CC[C@@H]4[C@H]3CC[C@@]21CC` [Levonorgestrel], the “Bioequivalence in the presence and absence of upadacitinib” value in data set [1] was “bioequivalent”. In data set [1] (setting [4]), this compound displayed an AUC(0-t) of 43.0 ± 18.4 ng·h/mL, an AUCinf of 51.7 ± 22.0 ng·h/mL and a Cmax of 3.9 ± 1.4 ng/mL. Moreover, the Tmax in data set [1] (ethinylestradiol/levonorgestrel 0.03/0.15 mg alone, period 1 day 1, N = 22) is reported as 0.8 (0.5–2.0) h. Besides, in data set [1] (setting [5]), the AUC(0-t) is 38.7 ± 12.1 ng·h/mL, the AUCinf was 49.5 ± 20.4 ng·h/mL and the Cmax came out at 3.7 ± 1.15 ng/mL. The Tmax in data set [1] (setting [6]) was 0.8 (0.5–2.0) h. Also, in data set [1] (setting [7]), the “AUC0-t, Central Value, Reference” value was 39.6 and the “AUCinf, Central Value, Reference” value is 47.6. In data set [1] (setting [8]), the “AUC0-t, Central Value, Test” value is recorded as 36.3 and the “AUCinf, Central Value, Test” value was determined as 45.5.
By AUC(0-inf) is commonly meant total exposure, with the tail of the curve extrapolated. For orientation: half-life means the time in which the quantity being followed falls by half. As for `C#C[C@]1(O)CC[C@H]2[C@@H]3CCc4cc(O)ccc4[C@H]3CC[C@@]21C` [Ethinylestradiol], the “Bioequivalence in the presence and absence of upadacitinib” value in data set [1] is given as “bioequivalent”. In data set [1] (setting [6]), the Tmax is given as 1.5 (1.0–3.0) h. For the same compound, the AUC(0-t) in data set [1] (female, human, plasma, po, AUC0-t, Central Value, Test, period 2, day 12 (with upadacitinib 30 mg QD), repeated measures analysis) came to 0.39 ng·h/mL; in data set [1] (female, human, plasma, po, AUC0-t, ethinylestradiol/levonorgestrel 0.03/0.15 mg alone, period 1 day 1, N = 22, mean ± SD) it was 0.378 ± 0.154 ng·h/mL; in data set [1] (female, human, plasma, po, AUC0-t, ethinylestradiol/levonorgestrel 0.03/0.15 mg with upadacitinib 30 mg QD, period 2, N = 20, mean ± SD), 0.426 ± 0.137 ng·h/mL. Also, the total exposure AUC(0-inf) turned out to be 0.445 ng·h/mL in data set [1] (female, human, plasma, po, Central Value, Test, period 2, day 12 (with upadacitinib 30 mg QD), repeated measures analysis) and 0.441 ± 0.193 ng·h/mL in data set [1] (female, human, plasma, po, ethinylestradiol/levonorgestrel 0.03/0.15 mg alone, period 1 day 1, N = 22, mean ± SD). Moreover, the half-life in data set [1] (female, human, plasma, po, ethinylestradiol/levonorgestrel 0.03/0.15 mg alone, period 1 day 1, N = 22) was 7 h; in data set [1] (female, human, plasma, po, ethinylestradiol/levonorgestrel 0.03/0.15 mg with upadacitinib 30 mg QD, period 2, N = 20), 7.7 h.
In the case of `CC[C@@H]1CN(C(=O)NCC(F)(F)F)C[C@@H]1c1cnc2cnc3[nH]ccc3n12` [Upadacitinib], the “effect of upadacitinib on the exposures of ethinylestradiol or levonorgestrel” value in data set [1] (upadacitinib 30 mg QD repeated doses) is “no effect”. Also, the “relation of treatment-emergent adverse events to upadacitinib” value in data set [2] is listed as “not considered to have a reasonable possibility of being related”. Also, the “accumulation upon multiple QD dosing” value in data set [3] (extended-release formulation) is “No significant accumulation”. The “administered dose eliminated in urine and feces as unchanged upadacitinib” value in data set [3] (in vivo) is > 60%. For the same compound, the “time to steady state” value in data set [3] (multiple QD dosing, extended-release formulation) was ≤ 4 days. For the same compound, in the data set with cytochrome P450 (CYP) 3A, the “increase in upadacitinib AUC” value is given as 75% and the “increase in upadacitinib Cmax” value was 70%. The JAK1 inhibition entry with JAK1 was “potently inhibits JAK1”. In the data set with other JAK isoforms, the “potency against the other JAK isoforms” value was “less potent”.
